Results from US5250527A, “Pyridyl containing benzimidazoles, compositions and use” (SmithKline & French Laboratories Limited, priority 1988, dated 1993).

Legend:
H^+ -K^+ -ATPase = target: T1, H^+ -K^+ -ATPase (Sus scrofa, UniProt P19156); assay: K+ stimulated ATPase activity; format: biochemical; conditions: at pH 6.1 and 7.4; lyophilised gastric vesicles of pig fundic mucosa
T1 construct: alpha-beta complex
Description: The effects of a single high concentration (1 mM) of a compound of structure (I) on H^+ -K^+ ATPase were determined at pH 6.1 and pH 7.4.
Compounds of structure (I) were pre-incubated with H^+ -K^+ -ATPase preparation 30 μg protein/ml from (i) in 10 mM Pipes/Tris buffer pH 6.1 and pH 7.4.
After 30 min at 37° the preincubation was diluted 5-fold with assay buffer to start the ATPase reaction. The conditions in the assay are 100 mM Pipes/Tris, 2 mM MgCl2, 10 mM KCl, 5 μgml nigericin, 2 mM Na2 ATP, pH 7.0.
The effect of the same concentration of compound of structure (I) (preincubated with H^+ -K^+ -ATPase preparation at pH 7.4 as described above) on the recovery of 100 nmole of inorganic phosphate was also determined.
Compounds of structure (I) were initially dissolved in dimethyl sulphoxide, polyethylene glycol (Type 400) or Pipes/Tris buffer.
All data refer to the concentration of compound present in the preincubation before dilution with assay buffer.

[1] = test system: Histamine-Stimulated Gastric Acid Secretion; assay: Dog: Conscious Heidenhain Pouch (Histamine-Stimulated Gastric Acid Secretion); format: in vivo; conditions: Canis lupus familiaris, intravenous
Text: B. Dog: Conscious Heidenhain Pouch (Histamine-Stimulated Gastric Acid Secretion)
Using dogs surgically prepared with Heidenhain pouches 1 to 3 years previously, inhibitory ED50 values against histamine stimulated gastric acid secretion after intravenous administration were obtained.

[2] = test system: rabbit intact gastric glands; assay: Aminopyrine (AP) accumulation in intact gastric glands; format: cell-based, New Zealand white rabbits; conditions: Oryctolagus cuniculus, 0.5 h, inhibition of aminopyrine accumulation, dibutyryl cAMP stimulated, pH 7.4, 30 min
Description: The effect of a single concentration (100 μm) of a compound of structure (I) on dibutyryl cAMP stimulated AP […] in rabbit intact gastric glands was determined. Preferred compounds of structure (I) were tested over a range of concentrations to determine the IC50 value.
Intact gastric glands were prepared from New Zealand white rabbits by the method of Berghindh et al. (Acta. Physio. Scand. 96, 150, 1976). Gastric mucosal scrapings were digested at 37° C. for 45-60 min. with Collagenase (100 U. Type 1. Sigma), and glands harvested by coarse filtration and sedimentation.
Test compound was incubated with glands and 300 μM dibutyryl CAMP for 30 minutes at […]. Incubating medium contained 132.5 mM NaCl, 5.4 Mm KCl, 1.0 mM NaH2 PO4. 5.0 mM Na2 HPO4, 1.2 mM MgSO4, 1.0 mM CaCl2, 11.1 mM glucose, 2.0 mg/ml rabbit albumin, 10 μg/ml phenol red, approximately 0.3 μM[^14 C] aminopyrine (110 mCi/mmole), pH 7.4.
After incubation, glands were centrifuged and the supernatant removed. The glands were dried, weighed and dissolved in NaOH. The distribution of radioactivity between the supernatant and glands is then used to calculate the AP ratio after the method of Berglindh et al. (Acta. Physiol. Scand. 97, 401, 1976).
The IC50 value is the amount of compound required to inhibit the […] accumulation of aminopyrine by 50%.

[3] = test system: Histamine Stimulated Gastric Acid Secretion; assay: Rat: Lumen Perfumed Stomach (Histamine Stimulated Gastric Acid Secretion); format: in vivo; conditions: i.v.
Text: C. Rat: Lumen Perfumed Stomach (Histamine Stimulated Gastric Acid Secretion)
Using a modification of the procedure described by Ghosh and Schild (Br. J. Pharmacology, 13, 54, 1958), ED50 values after either intraduodenal (i.d) or intravenous (i.v) administration were obtained as follows: […]

T1 sequence (P19156 whole entry): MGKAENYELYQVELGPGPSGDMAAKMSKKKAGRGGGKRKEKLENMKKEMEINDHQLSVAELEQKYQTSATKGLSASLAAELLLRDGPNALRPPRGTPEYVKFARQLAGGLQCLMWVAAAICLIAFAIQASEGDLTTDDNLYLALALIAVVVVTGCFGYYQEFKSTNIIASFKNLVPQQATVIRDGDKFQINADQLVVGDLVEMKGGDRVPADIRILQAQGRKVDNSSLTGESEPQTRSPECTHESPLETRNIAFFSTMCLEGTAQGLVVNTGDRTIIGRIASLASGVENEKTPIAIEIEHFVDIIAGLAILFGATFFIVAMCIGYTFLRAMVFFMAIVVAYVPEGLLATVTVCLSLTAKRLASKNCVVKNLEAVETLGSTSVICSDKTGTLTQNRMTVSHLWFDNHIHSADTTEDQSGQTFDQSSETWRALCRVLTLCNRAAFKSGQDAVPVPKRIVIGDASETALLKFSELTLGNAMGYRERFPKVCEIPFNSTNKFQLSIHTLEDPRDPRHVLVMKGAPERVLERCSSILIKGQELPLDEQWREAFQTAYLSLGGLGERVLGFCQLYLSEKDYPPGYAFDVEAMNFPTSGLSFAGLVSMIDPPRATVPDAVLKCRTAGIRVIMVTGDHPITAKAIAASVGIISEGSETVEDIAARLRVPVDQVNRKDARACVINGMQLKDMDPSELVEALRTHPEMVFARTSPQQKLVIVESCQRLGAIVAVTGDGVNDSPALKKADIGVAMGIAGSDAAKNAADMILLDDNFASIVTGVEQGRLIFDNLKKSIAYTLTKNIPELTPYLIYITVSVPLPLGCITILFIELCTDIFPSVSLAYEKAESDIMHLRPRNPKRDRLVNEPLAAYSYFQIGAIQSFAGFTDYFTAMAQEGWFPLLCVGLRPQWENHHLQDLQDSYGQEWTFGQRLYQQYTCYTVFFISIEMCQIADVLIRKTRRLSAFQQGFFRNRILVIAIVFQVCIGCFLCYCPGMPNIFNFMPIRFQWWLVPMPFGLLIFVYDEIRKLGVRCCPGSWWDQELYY
T1 sequence (P18434 whole entry partner): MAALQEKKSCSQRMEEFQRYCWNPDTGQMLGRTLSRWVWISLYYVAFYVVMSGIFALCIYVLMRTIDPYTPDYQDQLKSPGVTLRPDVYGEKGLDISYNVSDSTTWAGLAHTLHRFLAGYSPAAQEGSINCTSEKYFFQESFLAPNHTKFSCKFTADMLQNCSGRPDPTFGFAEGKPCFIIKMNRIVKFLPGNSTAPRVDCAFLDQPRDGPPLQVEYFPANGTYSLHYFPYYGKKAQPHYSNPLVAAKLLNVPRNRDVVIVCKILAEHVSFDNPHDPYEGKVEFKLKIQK

| Compound | inhibition of potassium stimulated ATPase activity (H^+ -K^+ -ATPase) | ED50 [1] [µmol/kg] | IC50 [2] [µM] | % inhibition at 1 μM/kg [3] [%] |
| --- | --- | --- | --- | --- |
| 2-(4-piperidino-3-chloro-5-methyl-2-pyridylmethylsulphinyl)-4, 5-difluoromethylenedioxy-(1H)-benzimidazole [Example 24] | found to inhibit potassium stimulated ATPase activity | – | – | – |
| COc1ccc2[nH]c([S+]([O-])Cc3cc(N)c(Br)cn3)nc2c1 (stereo not drawn) [Example 2, 2 -(4 -amino-5 -bromo-2 -pyridylmethylsulphinyl)-5 -methoxy-(1H)-benzimidazole] | found to inhibit potassium stimulated ATPase activity | 2.94 | 6.6 | – |
| COc1ccc2[nH]c([S+]([O-])Cc3nccc(N4CCOCC4)c3Cl)nc2c1 (stereo not drawn) [Example 4, 2 -(4 -morpholino-3 -chloro-2 -pyridylmethylsulphinyl)-5 -methoxy-(1H)-benzimidazole] | found to inhibit potassium stimulated ATPase activity | 1 | 11 | – |
| COc1ccc2[nH]c([S+]([O-])Cc3ncc(C)c(N4CCOCC4)c3Cl)nc2c1 (stereo not drawn) [Example 6, 2 -(4 -morpholino-3 -chloro-5 -methyl-2 -pyridylmethylsulphinyl)-5 -methoxy-(1H)-benzimidazole] | found to inhibit potassium stimulated ATPase activity | 2.2 | 16.3 | – |
| COc1ccc2[nH]c([S+]([O-])Cc3ncc(C)c(N4CCCCC4)c3Cl)nc2c1 (stereo not drawn) [Example 8, 2 -(4 -piperidino-3 -chloro-5 -methyl-2 -pyridylmethylsulphinyl)-5 -methoxy-(1H)-benzimidazole] | found to inhibit potassium stimulated ATPase activity | – | 4.2 | – |
| COc1ccc2[nH]c([S+]([O-])Cc3nccc(N4CCCCC4)c3Cl)nc2c1 (stereo not drawn) [Example 10, 2 -(4 -piperidino-3 -chloro-2 -pyridylmethylsulphinyl)-5 -methoxy-(1H)-benzimidazole] | found to inhibit potassium stimulated ATPase activity | 1.2 | 2 | – |
| COc1ccc2[nH]c([S+]([O-])Cc3nccc(N4CCCC4)c3Cl)nc2c1 (stereo not drawn) [Example 12, 2 -(4 -pyrrolidino-3 -chloro-2 -pyridylmethylsulphinyl)-5 -methoxy-(1H)-benzimidazole] | found to inhibit potassium stimulated ATPase activity | – | 1 to 10 | – |
| COc1ccc2[nH]c([S+]([O-])Cc3ncc(C)c(N4CCCC4)c3Cl)nc2c1 (stereo not drawn) [Example 14, 2 -(4 -pyrrolidino-3 -chloro-5 -methyl-2 -pyridylmethylsulphinyl)-5 -methoxy-(1H)-benzimidazole] | found to inhibit potassium stimulated ATPase activity | – | 2.6 | – |
| COc1ccc2[nH]c([S+]([O-])Cc3ncc(C)c(N(C)C)c3Cl)nc2c1 (stereo not drawn) [Example 16, 2 -(4 -dimethylamino-3 -chloro-5 -methyl-2 -pyridylmethylsulphinyl)-5 -methoxy-(1H)-benzimidazole] | found to inhibit potassium stimulated ATPase activity | 0.29 | 3.7 | – |
| COc1ccc2[nH]c([S+]([O-])Cc3cc(N4CCCCC4)c(Br)cn3)nc2c1 (stereo not drawn) [Example 18, 2-(4-piperidino-5-bromo-2-pyridylmethylsulphinyl)-5-methoxy-(1H)-benzimidazole] | found to inhibit potassium stimulated ATPase activity | – | 1.6 | – |
| COc1ccc2[nH]c([S+]([O-])Cc3nccc(N4CCCCC4)c3Br)nc2c1 (stereo not drawn) [Example 20, 2-(4-piperidino-3-bromo-2-pyridylmethylsulphinyl)-5-methoxy-(1H)-benzimidazole] | found to inhibit potassium stimulated ATPase activity | – | 1.3 | – |
| COc1ccc2[nH]c([S+]([O-])Cc3ncc(Br)c(N4CCCCC4)c3C)nc2c1 (stereo not drawn) [Example 22, 2-(4-piperidino-5-bromo-3-methyl-2-pyridylmethylsulphinyl) -5-methoxy-(1H)-benzimidazole] | found to inhibit potassium stimulated ATPase activity | – | 9.2 | – |
| Cc1cnc(C[S+]([O-])c2nc3cc(OC(F)(F)C(F)F)ccc3[nH]2)c(Cl)c1N1CCCCC1 (stereo not drawn) [Example 23, 2-(4-piperidino-3-chloro-5-methyl-2-pyridylmethylsulphinyl)-5-(1,1,2,2-tetrafluoroethoxy)-(1H)-benzimidazole] | found to inhibit potassium stimulated ATPase activity | – | 1.9 | – |
| COc1ccc2[nH]c([S+]([O-])Cc3cc(N(C)C)c(Br)cn3)nc2c1 (stereo not drawn) [Example 25, 2-(4-dimethylamino-5-bromo-2-pyridylmethylsulphinyl)-5-methoxy-(1H)-benzimidazole] | found to inhibit potassium stimulated ATPase activity | 0.91 | – | – |
| COc1ccc2[nH]c([S+]([O-])Cc3cc(N4CCCC4)c(Br)cn3)nc2c1 (stereo not drawn) [Example 26, 2-(4-pyrrolidino-5-bromo-2-pyridylmethylsulphinyl)-5-methoxy-(1H)-benzimidazole] | found to inhibit potassium stimulated ATPase activity | – | – | – |
| COc1ccc2[nH]c([S+]([O-])Cc3nccc(N4CCOCC4)c3F)nc2c1 (stereo not drawn) [Example 28, 2-(4-morpholino-3-fluoro-2-pyridylmethylsulphinyl)-5-methoxy-(1H)-benzimidazole] | – | 2.75 | – | – |
| COc1ccc2[nH]c([S+]([O-])Cc3cc(N4CCOCC4)c(F)cn3)nc2c1 (stereo not drawn) [Example 30, 2-(4-morpholino-5-fluoro-2-pyridylmethylsulphinyl)-5-methoxy-(1H)-benzimidazole] | – | 5.07 | – | 51 |
| COc1ccc2[nH]c([S+]([O-])Cc3nccc(N(C)C)c3F)nc2c1 (stereo not drawn) [Example 32, 2-(4-dimethylamino-3-fluoro-2-pyridylmethylsulphinyl)-5-methoxy-(1H)-benzimidazole] | – | – | – | 26 |
| COc1ccc2[nH]c([S+]([O-])Cc3cc(N(C)C)c(F)cn3)nc2c1 (stereo not drawn) [Example 34, 2-(4-dimethylamino-5-fluoro-2-pyridylmethylsulphinyl)-5-methoxy-(1H)-benzimidazole] | – | – | – | 37 |
| COc1ccc2[nH]c([S+]([O-])Cc3ncc(F)c(N4CCOCC4)c3C)nc2c1 (stereo not drawn) [Example 36, 2-(4-morpholino-5-fluoro-3-methyl-2-pyridylmethylsulphinyl)-5-methoxy-(1H)-benzimidazole] | – | 2.05 | – | – |
| COc1cc2nc([S+]([O-])Cc3nccc(N4CCOCC4)c3F)[nH]c2cc1OC (stereo not drawn) [Example 38, 2-(4-morpholino-3-fluoro-2-pyridylmethylsulphinyl)-5,6-dimethoxy-(1H)-benzimidazole] | – | – | – | 33 |
| COc1cc2[nH]c([S+]([O-])Cc3nccc(N4CCOCC4)c3F)nc2cc1C (stereo not drawn) [Example 40, 2-(4-morpholino-3-fluoro-2-pyridylmethylsulphinyl)-5-methyl-6-methoxy-(1H)-benzimidazole] | – | 2.14 | – | – |
| COc1cc2nc([S+]([O-])Cc3nccc(N(C)C)c3F)[nH]c2cc1OC (stereo not drawn) [Example 42, 2-(4-dimethylamino-3-fluoro-2-pyridylmethylsulphinyl)-5,6-dimethoxy-(1H)-benzimidazole] | – | – | – | 46 |
